From PubChem BioAssay AID1963829 (Molecular Pharmacology Branch, DTP, NCI, 2024)

Tested on: 935938-334-R-J1-PDC complex spheroid viability
Assay: Anticancer human tumor 935938-334-R-J1-PDC patient-derived small intestine adenocarcinoma cell line growth inhibition [POLQ]
Conditions: for IC50: curve of first compound; for viability, T/C: stronger effect = lower value
Experimental: Multicellular complex tumor spheroid response to Polymerase (POL) inhibitors (novobiocin, ART-558, RP6685) in combination with a variety of drugs and investigational agents in selected tumor cell lines
The POL inhibitors (novobiocin, ART-558, and RP6685) were evaluated both individually and in combination with standard of care and investigational anticancer small molecules within a complex spheroid model of solid tumors. . Complex spheroids include a stromal component modeled by human endothelial cells (HUVEC) and fibroblasts modeled by human mesenchymal stem cells (MSCs). The concentration ranges selected for each drug and investigational agent were based upon clinically achievable concentrations if the clinical Cmax of the agent was known.
Compounds. The drugs and investigational agents: novobiocin (NSC847541), ART-558 (NSC835418), RP-6685 (NSC848927), peposertib (NSC802822), ceralasertib (NSC780249), elimusertib (NSC800525), camonsertib (NSC841442), AZD-1390 (NSC803789), olaparib (NSC753686), talazoparib (NSC767125), rucaparib (NSC756644), sotorasib (NSC818433), MRTX-1133 (NSC836407), SN-38 (NSC673596), topotecan (NSC609699), epotoside (NSC141540), doxorubicin (NSC123127), gemcitabine (NSC613327), 5-fluorouracil (NSC19893), paclitaxel (NSC125973), vemurafenib (NSC761431), MSA-2 (NSC828583), SN-011 (NSC837082), adavosertib (NSC754352), prexasertib (NSC758257), carboplatin (NSC241240) and oxaliplatin (NSC266046), were obtained from the National Cancer Institute (NCI) Developmental Therapeutics Program Chemical Repository (21). The FDA-approved anticancer drug set is available from the Developmental Therapeutics Program at https://dtp.cancer.gov/organization/dscb/obtaining/. […] The stock solutions were prepared in dimethyl sulfoxide (DMSO, Sigma-Aldrich, St. Louis, MO, cat. D2650), except for the platinum compounds which were prepared in saline (Quality Biological, Gaithersburg, MD, cat. 114-055-101), at 800-fold the tested concentration and stored at -70 degrees C prior to their use. All drugs and investigational agents were tested over a range starting from a high concentration at or near the clinical Cmax and decreasing in half-log increments. If the clinical Cmax for an agent had not been determined, the highest concentration tested was 10 microM, except for SN-38, which was tested at a high concentration of 1 microM.
Cell Culture. All cells were maintained in an incubator at 37 degrees C and 5% CO2 with 95% humidity. The PDC lines were cultured according to standard operating procedures established by the NCI PDMR (https://pdmr.cancer.gov). Table 3 of the manuscript, lists the cell lines along with the number of the three cell types plated to form the mct-spheroids and media for tumor cell growth. After thawing, all PDC lines, except 997537-175-T-J1-PDC and 415267-285-R-J2-PDC, were cultured in Matrigel-coated flasks prepared with a working solution of 1X Ham's F-12 nutrient mix, without supplementation (Thermo Fisher Scientific, cat. 11765054), 100 U/mL penicillin-streptomycin (Thermo Fisher Scientific, cat. 15140122), and 2.5% Matrigel (Corning Inc., Corning, NY, cat. 354248) for the first three passages. The two PDC lines 997537-175-T-J1-PDC and 415267-285-R-J2-PDC were cultured on uncoated flasks. The 857933-349-R-J2-PDC line was cultured in 6C/Colon 1B media containing advanced DMEM/F-12 (Thermo Fisher Scientific, cat. 12634028), 10 mM HEPES (Thermo Fisher Scientific, cat. 15630080), 1X GlutaMAX supplement (Thermo Fisher Scientific, cat. 35050061), 0.1 mg/mL primocin (InvivoGen, San Diego, CA, cat. ant-pm-2), 10% defined fetal bovine serum, heat inactivated (HyClone Laboratories Inc., Logan, UT, cat. SH30070.03HI), 50% L-WRN conditioned media (ATCC, cat. CRL-3276), 1.25 mM N-Acetyl-L-cysteine (Sigma-Aldrich, cat. A9165), 10 mM nicotinamide (Sigma-Aldrich, cat. N0636), 1X B-27 supplement (Thermo Fisher Scientific, cat. 17504044), 1X N-2 supplement (Thermo Fisher Scientific, cat. […]

[1] = second compound 0.0316 µM, first compound 0.0316 µM
[2] = second compound 0.0316 µM, first compound 0.1 µM
[3] = second compound 0.0316 µM, first compound 0.316 µM
[4] = second compound 0.0316 µM, first compound 1 µM
[5] = second compound 0.0316 µM, first compound 3.16 µM
[6] = second compound 0.0316 µM, first compound 10 µM
[7] = second compound 0.1 µM, first compound 0.0316 µM
[8] = second compound 0.1 µM, first compound 0.1 µM
[9] = second compound 0.1 µM, first compound 0.316 µM
[10] = second compound 0.1 µM, first compound 1 µM
[11] = second compound 0.1 µM, first compound 3.16 µM
[12] = second compound 0.1 µM, first compound 10 µM
[13] = second compound 0.316 µM, first compound 0.0316 µM
[14] = second compound 0.316 µM, first compound 0.1 µM
[15] = second compound 0.316 µM, first compound 0.316 µM
[16] = second compound 0.316 µM, first compound 1 µM
[17] = second compound 0.316 µM, first compound 3.16 µM
[18] = second compound 0.316 µM, first compound 10 µM
[19] = second compound 1 µM, first compound 0.0316 µM
[20] = second compound 1 µM, first compound 0.1 µM
[21] = second compound 1 µM, first compound 0.316 µM
[22] = second compound 1 µM, first compound 1 µM
[23] = second compound 1 µM, first compound 3.16 µM
[24] = second compound 1 µM, first compound 10 µM
[25] = second compound 3.16 µM, first compound 0.0316 µM
[26] = second compound 3.16 µM, first compound 0.1 µM
[27] = second compound 3.16 µM, first compound 0.316 µM
[28] = second compound 3.16 µM, first compound 1 µM
[29] = second compound 3.16 µM, first compound 3.16 µM
[30] = second compound 3.16 µM, first compound 10 µM
[31] = second compound 10 µM, first compound 0.0316 µM
[32] = second compound 10 µM, first compound 0.1 µM
[33] = second compound 10 µM, first compound 0.316 µM
[34] = second compound 10 µM, first compound 1 µM
[35] = second compound 10 µM, first compound 3.16 µM
[36] = second compound 10 µM, first compound 10 µM
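Also: spheroids exposed to drugs for seven days before viability read.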
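For viability, T/C in this document: 100% = DMSO vehicle control wells.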

`CCc1cc2c(N3CCc4c(cc(Cn5ccnc5)cc4-c4cn(C)nc4C(F)(F)F)C3=O)cc(C)nc2c(OC)n1` + Cc1cccc(N(C)C(=O)C2C(O)CCN2c2nc(C)cc(C(F)(F)F)c2C#N)c1 was tested, and the IC50 (second compound 0.0316 µM) was > 10 µM, the IC50 (second compound 0.1 µM) was > 10 µM and the IC50 (second compound 0.316 µM) was > 10 µM. For the same compound, the IC50 (second compound 1 µM) was > 10 µM, the IC50 (second compound 3.16 µM) was > 10 µM and the IC50 (second compound 10 µM) was > 10 µM. For the same compound, the viability, T/C [1] was 77.4%, the viability, T/C [2] was 59% and the viability, T/C [3] was 74%. The viability, T/C [4] was 58.9%, the viability, T/C [5] was 69.4% and the viability, T/C [6] was 56.7%. The viability, T/C [7] was 61.9%, the viability, T/C [8] was 87% and the viability, T/C [9] was 62.8%. For the same compound, the viability, T/C [10] was 56.1%, the viability, T/C [11] was 72% and the viability, T/C [12] was 63%. The viability, T/C [13] was 74.7%, the viability, T/C [14] was 62.6% and the viability, T/C [15] was 62.4%. For the same compound, the viability, T/C [16] was 54.8%, the viability, T/C [17] was 65.5% and the viability, T/C [18] was 51.6%. It also gave a viability, T/C [19] of 91.2%, a viability, T/C [20] of 61.9% and a viability, T/C [21] of 55.6%. The viability, T/C [22] was 60.9%, the viability, T/C [23] was 51.7% and the viability, T/C [24] was 53.2%. The viability, T/C [25] was 78.3%, the viability, T/C [26] was 78.3% and the viability, T/C [27] was 71.6%. The viability, T/C [28] was 70.7%, the viability, T/C [29] was 57.1% and the viability, T/C [30] was 54.2%. It also gave a viability, T/C [31] of 72.7%, a viability, T/C [32] of 65.8% and a viability, T/C [33] of 58.9%. The viability, T/C [34] was 49.5%, the viability, T/C [35] was 60.3% and the viability, T/C [36] was 50.8%.
`CNCc1ccc(-c2[nH]c3cc(F)cc4c3c2CCNC4=O)cc1` + Cc1cccc(N(C)C(=O)C2C(O)CCN2c2nc(C)cc(C(F)(F)F)c2C#N)c1 was tested, and the IC50 (second compound 0.0316 µM) was > 10 µM, the IC50 (second compound 0.1 µM) was > 10 µM and the IC50 (second compound 0.316 µM) was > 10 µM. The IC50 (second compound 1 µM) was > 10 µM, the IC50 (second compound 3.16 µM) was > 10 µM and the IC50 (second compound 10 µM) was > 10 µM. It also gave a viability, T/C [1] of 90.2%, a viability, T/C [2] of 97.7% and a viability, T/C [3] of 101%. It also gave a viability, T/C [4] of 115%, a viability, T/C [5] of 108% and a viability, T/C [6] of 81.8%. It also gave a viability, T/C [7] of 107%, a viability, T/C [8] of 64.9% and a viability, T/C [9] of 78.2%. It also gave a viability, T/C [10] of 94.9%, a viability, T/C [11] of 90.6% and a viability, T/C [12] of 76.8%. For the same compound, the viability, T/C [13] was 85.5%, the viability, T/C [14] was 94.5% and the viability, T/C [15] was 97.2%. For the same compound, the viability, T/C [16] was 97.2%, the viability, T/C [17] was 125% and the viability, T/C [18] was 99.9%. It also gave a viability, T/C [19] of 106%, a viability, T/C [20] of 78.6% and a viability, T/C [21] of 88.5%. It also gave a viability, T/C [22] of 100%, a viability, T/C [23] of 93.2% and a viability, T/C [24] of 112%. It also gave a viability, T/C [25] of 88.9%, a viability, T/C [26] of 118% and a viability, T/C [27] of 88.1%. It also gave a viability, T/C [28] of 102%, a viability, T/C [29] of 133% and a viability, T/C [30] of 99.5%. The viability, T/C [31] was 122%, the viability, T/C [32] was 80.7% and the viability, T/C [33] was 96.2%. It also gave a viability, T/C [34] of 83.2%, a viability, T/C [35] of 121% and a viability, T/C [36] of 102%.
